From US20260226049A1, “NITROGEN-CONTAINING HETEROCYCLIC COMPOUND, PREPARATION METHOD THEREFOR, AND USE THEREOF” (BIVISION PHARMACEUTICALS, INC, priority 2023, published 2026)
Where two headings read alike, the source gives them in different places.

How the values were obtained:
HT1080 8 #cells = assay: Cell competitive binding assay against ^177Lu-radiolabeled FAPi-46
Experimental: (1) HT1080 8 #cells in the logarithmic growth phase were prepared into a cell suspension, and the cell density was adjusted to 1×10^4/mL. 1 mL of the suspension was seeded into a 24-well cell culture plate. The plate was incubated overnight in a 37° C. incubator.
(2) The cell culture medium was aspirated, and the cells were washed once with PBS, followed by the addition of 975 μL of additive-free medium.
(3) To each well, 25 µL of ^177Lu-radiolabeled FAPi-46 (Nanchang Tanzhen Biotechnology Co., Ltd., CAS: 2374782-04-2) at a fixed concentration (final concentration in culture medium: 1.35 μCi/mL) and varying concentrations (final concentrations in culture medium: 1000 ng/mL, 100 ng/ml, 10 ng/ml, 1 ng/mL, 0.1 ng/ml, 0.01 ng/mL, 0.001 ng/mL, 0 ng/ml) of unlabeled test compounds JHH8, JHDB8, and JHH9 were added.
(4) The mixture was incubated on ice for 2 hours.
(5) The cells were washed three times with ice-cold PBS.
(6) The cells were lysed with 0.5 mL of 1 M sodium hydroxide, washed twice with 0.5 mL of PBS, and the sodium hydroxide solution (0.5 mL) and PBS solutions (0.5 mL×2) were collected for uptake counting.
The control compound was OncoFAP-DOTAGA (structural formula: […]
The cell competitive binding of compounds JHH5, JHH4, JHH10, JHH8, H4b, H5b, and H8b was tested in the same batch using the above method, and the experimental results are shown in Table 3 and FIG. 3.

HT1080 2 #FAP cells = assay: Tissue distribution in FAP-positive tumor-bearing mice; type: in vivo, mice (Balb/c Nude); conditions: 24 hours after tail vein injection, approximately 3.7 MBq/mouse
Source text: Tissue distribution in FAP-positive tumor-bearing mice: 2×10^6 HT1080 2 #FAP cells (in 50% Matrigel, Corning) were subcutaneously inoculated into the right shoulder of mice (Balb/c Nude, Vital River) aged approximately 6-9 weeks. When the tumors grew to approximately 150-350 mm^3 in size, the following “7. General ^177Lu Labeling Experimental Method” was used to label JHH3, JHH8, JHH9, JHDB7, and JHDB8 compounds. Subsequently, ^177Lu-JHH3, ^177Lu-JHH8, ^177Lu-JHH9, ^177Lu-JHDB7, ^177Lu-JHDB8, and ^177Lu-OncoFAP DOTAGA radiolabeled compounds were injected into the mice via the tail vein (approximately 3.7 MBq/mouse). 24 hours after administration, the animals were euthanized by CO2 inhalation, and blood and organs (liver, kidney, muscle, tumor) were collected after euthanasia.
After organ collection, the samples were rinsed twice with deionized water and dried, then placed in pre-weighed tubes and weighed again to calculate the sample weight. The samples were measured on the day of collection. All blood samples and tissue samples were measured for radioactive counts using a gamma counter.

FAP protein = target: T1, FAP protein (Homo sapiens, UniProt Q12884); assay: Biacore test of ligand binding to FAP protein; conditions: FAP protein on SA chip, 15° C., 1:1 binding model
T1 construct: purchased Sinobiological
T1 sequence (Q12884 1-760): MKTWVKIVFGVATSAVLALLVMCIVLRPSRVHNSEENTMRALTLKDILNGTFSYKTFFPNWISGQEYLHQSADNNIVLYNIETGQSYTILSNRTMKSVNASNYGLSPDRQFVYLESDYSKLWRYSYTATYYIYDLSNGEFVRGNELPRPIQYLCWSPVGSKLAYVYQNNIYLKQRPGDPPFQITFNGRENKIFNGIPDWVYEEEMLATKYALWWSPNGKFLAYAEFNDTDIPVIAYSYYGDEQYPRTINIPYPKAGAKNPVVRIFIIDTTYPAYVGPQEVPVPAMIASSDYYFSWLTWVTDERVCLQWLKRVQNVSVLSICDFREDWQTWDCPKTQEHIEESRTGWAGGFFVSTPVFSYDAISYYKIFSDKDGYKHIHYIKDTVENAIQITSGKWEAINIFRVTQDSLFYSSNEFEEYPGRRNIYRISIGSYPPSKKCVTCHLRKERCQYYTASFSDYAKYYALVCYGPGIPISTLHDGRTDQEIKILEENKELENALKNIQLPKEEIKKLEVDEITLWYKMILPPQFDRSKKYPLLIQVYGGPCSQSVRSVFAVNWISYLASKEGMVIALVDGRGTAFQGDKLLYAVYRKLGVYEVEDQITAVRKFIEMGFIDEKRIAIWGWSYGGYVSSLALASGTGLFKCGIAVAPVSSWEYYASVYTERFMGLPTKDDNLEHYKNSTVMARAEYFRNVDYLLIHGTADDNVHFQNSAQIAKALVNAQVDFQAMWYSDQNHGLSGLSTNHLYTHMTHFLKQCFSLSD
Experimental: The Biacore 8K (Cytiva) instrument was used to detect ligand binding of the FAP protein (Sinobiological). The FAP protein was captured on the SA chip. Before ligand immobilization (flow paths 1 and 2, flow rate of 10 μL/min), the FAP protein (10 μg/mL, flow rate of 5 μL/min, injection time of 600 s) was immobilized on flow path 2 using running buffer, and the sensor surface was conditioned with three consecutive injections of 1 M NaCl in 50 mM NaOH. After each ligand injection, additional washing was carried out with isopropanol in 1 M NaCl and 50 mM NaOH (flow paths 1 and 2, flow rate of 10 μL/min, injection time of 60 s).
The test compounds were dissolved in 100% dimethyl sulfoxide and diluted to 10 mM, then further diluted in the assay buffer (PBS, pH 7.4, 1 mM TCEP ([…]), 0.05% P20, 2% dimethyl sulfoxide) to appropriate maximum concentrations. The analyte was run under the following conditions: analysis temperature=15° C., analysis step=all set to LMW kinetics; cycle type=single cycle (90 s contact time, 1800 s dissociation time, 30 μL/min flow rate, flow channels 1, 2); flow channel detection=2-1). Data evaluation was performed using Biacore Insight Evaluation Software, and the data were fitted to a 1:1 binding model.
The Biacore results are shown in Table 1: pKD=−Log KD, where KD is the binding affinity of the compound to the FAP protein as measured by Biacore. The binding affinity is expressed by KD (M)=Kd(1/s)/Ka(1/Ms). Where A: pKD>8, B: 7<pKD<8, C: 6<pKD<7, D: pKD<6.

[1] = EC50 (ng/mL) converted with molecular weight, read-out: EC50
[2] = competition with ^177Lu-FAPi-46, on ice 2 hours

| EC50 (HT1080 8 #cells; [1]) [nM] | EC50 (HT1080 8 #cells; [2]) [ng/mL] | uptake in other organs compared to the reference compound (HT1080 2 #FAP cells) | uptake in tumor tissues compared to the reference compound (HT1080 2 #FAP cells) | Structure (SMILES) | Kd (FAP protein) [nM] |
| --- | --- | --- | --- | --- | --- |
| 1.3 | 1.231 |  |  | N#C[C@@H]1CC(F)(F)CN1C(=O)CNC(=O)c1cccc2c1CN(C(=O)CCC(=O)NCCNC(=O)CCC(C(=O)O)N1CCN(CC(=O)O)CCN(CC(=O)O)CCN(CC(=O)O)CC1)CC2 (stereo partly drawn) [JHH4] |  |
| 14.5 | 13.77 |  |  | N#C[C@@H]1CC(F)(F)CC1C(=O)CNC(=O)c1ccc2c(c1)CCCN2C(=O)CCC(=O)NCCNC(=O)CCC(C(=O)O)N1CCN(CC(=O)O)CCN(CC(=O)O)CCN(CC(=O)O)CC1 (stereo partly drawn) [JHH8] | < 10 |

Second part, the compound before the results:

| Structure (SMILES) | EC50 (HT1080 8 #cells; [1]) [nM] | EC50 (HT1080 8 #cells; [2]) [ng/mL] | uptake in other organs compared to the reference compound (HT1080 2 #FAP cells) | uptake in tumor tissues compared to the reference compound (HT1080 2 #FAP cells) | Kd (FAP protein) [nM] |
| --- | --- | --- | --- | --- | --- |
| N#C[C@@H]1CC(F)(F)CN1C(=O)CNC(=O)c1cccc2c1CCNC2 [Compound H5b] | 452 | 157.5 |  |  |  |
| N#C[C@@H]1CC(F)(F)CN1C(=O)CNC(=O)c1cc2c(s1)CCN(C(=O)CCC(=O)NCCNC(=O)CCC(C(=O)O)N1CCN(CC(=O)O)CCN(CC(=O)O)CCN(CC(=O)O)CC1)C2 (stereo partly drawn) [^177Lu-JHH3, metal not drawn] |  |  | lower uptake in other organs | higher uptake in tumor tissues |  |
| N#C[C@@H]1CC(F)(F)CN1C(=O)CNC(=O)c1ccnc2c(NC(=O)CCC(=O)NCCNC(=O)CCC(C(=O)O)N3CCN(CC(=O)O)CCN(CC(=O)O)CCN(CC(=O)O)CC3)cccc12 (stereo partly drawn) [OncoFAP-DOTAGA, reference compound] | 2.81 | 2.699 |  |  |  |
| N#C[C@@H]1CC(F)(F)CN1C(=O)CNC(=O)c1ccc2c(c1)CCCN2 [Compound H8b] | 9.24 | 3.219 |  |  |  |
| N#C[C@@H]1CC(F)(F)CN1C(=O)CNC(=O)c1cccc2c1CNCC2 [Compound H4b] | 34.2 | 11.89 |  |  |  |
| N#C[C@@H]1CC(F)(F)CN1C(=O)CNC(=O)c1cccc2c1CCCN2C(=O)CCC(=O)NCCNC(=O)CCC(C(=O)O)N1CCN(CC(=O)O)CCN(CC(=O)O)CCN(CC(=O)O)CC1 (stereo partly drawn) [JHH10] | 3.56 | 3.38 |  |  | < 10 |
